The test system of data set [1] is tonic hindlimb seizure following corneal stimulation in CF-1 mice. Description: Mouse maximal electroshock (MES) assay, 60 Hz 50 mA corneal stimulation. It is filed as in vivo. On the procedure: The interaction of Compound A with other ASMs was evaluated after oral dosing in the mouse maximal electroshock (MES) assay to determine whether some combinations were favorable or unfavorable. Efficacy was quantified by calculating the fraction of animals with a tonic hindlimb seizure following corneal stimulation. Compound Preparation: Compound A was initially solubilized in DMSO. This solution was then added into a 0.5% methyl cellulose solution to create a more even and less aggregated compound suspension. Serial dilutions were prepared from the tube with the highest concentration of Compound A and the compound suspensions were further vortexed prior to animal dosing. The final concentration of DMSO was 5%, an amount with no apparent toxicity or neuroprotection in the MES assay. […] Animals: Adult male CF-1 albino mice (25-35 g) purchased from Harlan-Envigo were used. The mice were housed four per cage and had access to filtered water and chow ad libidum, throughout the experiment. MES Assay: Compounds were administered orally by gavage before testing unless indicated otherwise. During MES testing, a 60-Hz alternating current (50 mA) was delivered for 0.2 seconds through corneal electrodes to the mice. A drop of 0.5% Alcaine solution was placed on the eye prior to current delivery. The electrodes were subsequently placed gently onto the eyes of the animal and the electrical shock was initiated by triggering through a foot-pedal activator. The animals were restrained by hand and gently released as the shock was delivered and the seizure commenced. Animals were monitored for hind limb tonic extension as the end point for this test. Statistical analysis: All statistics were calculated using Prism version 7 software (Graphpad Software). The method used for each experiment is indicated in the results section. Concentration-response curves were calculated as best fits to the equation […] where X was the log of plasma concentration. Unless indicated otherwise, bottom was constrained to be 0. Top was constrained to be the value determined experimentally by vehicle control measurements. Compound A Dose Response: […]
Background: Protection in the maximal electroshock model is a classic sign of anticonvulsant action.

Data set [2] has as its system MES assay. The following applies: Barton et al. 2001; cited from earlier work.
A short description of data set [3]: Plasma and brain concentrations in 6 Hz studies (LC-MS/MS). The note with it: intraperitoneal. It is filed as in vivo, mouse. How it is done: Sample Collection and Preparation: Mice were anesthetized by isoflurane inhalation (TECH-018) until they reached a surgical plane of anesthesia. Then a syringe (1 mL syringe with a 22 gauge needle) was inserted under the sternum into the heart (TECH-031). Approximately 0.5 mL of blood was collected, deposited into a K2EDTA tube, and stored on ice. Animals were then euthanized by cervical dislocation (TECH-018). Brains were removed, placed into a pre-weighed vial, and snap frozen on dry ice. At the end of the sample collection, blood was centrifuged at 4000 rpm for 10 minutes at 4° C., and the plasma pipetted into a labeled tube. All samples were stored in a −80° C. freezer until bioanalysis (8 days after sample collection for Studies 3A and 3B; 20 days after sample collection for Study 3C).
Plasma and Tissue Sample Analysis: Bead mill polypropylene tubes containing weighed brain tissues were thawed at room temperature and 3 mL of homogenization solvent (water:acetonitrile (1:1, v:v)) was added. The tubes were placed in the Bead Mill Homogenizer (Bead Ruptor Elite Model, Omni International) and shaken at a velocity of 3.70 m/s for a single cycle lasting 30 seconds. The homogenized tube was centrifuged at 4000 rpm for 20 minutes, the supernatant was transferred to a 1.5 mL Eppendorf tube, and stored frozen at −80° C. until analysis. All samples including plasma and brain homogenate extracts (including calibration and quality control (QC) samples prepared in K2EDTA rat plasma), were extracted by protein precipitation. […] The samples in the 1.5 mL tubes were vortex mixed and then centrifuged for 20 minutes at 13,000 rpm. Fifty microliters of the supernatant was mixed with 150 μL of water/acetonitrile (1:1) in a 96 well plate which was centrifuged post mixing for 20 minutes at 4000 rpm, and was then ready for analysis by liquid chromatography tandem mass spectrometry (LC-MS/MS).
Samples were analyzed by a research-grade LC-MS/MS method as follows: […]

Data set [4] has as its system 6 Hz psychomotor seizures in CF-1 mice. Description: Mouse 6 Hz psychomotor seizure assay (34 milliampere, 3 s). It is filed as in vivo. The note with it: for Fraction Seizing: Levetiracetam 300 mg/kg IP 1 h alone. How it is done: It was evaluated whether the combination of both compounds is favorable or unfavorable for efficacy by dosing Compound A and Levetiracetam alone and in combination, each at a dose that produces sub-maximal efficacy on its own. […] Plasma and brain samples were analyzed to gain an understanding of how the combination of Compound A and Levetiracetam may affect pharmacokinetics and pharmacodynamics. […] 6 Hz Psychomotor Seizure Assay: […] The animal was then securely restrained and a pair of electrodes was applied to the eyes (Electro Convulsive Therapy Unit 57800, Ugo Basile). […] Data Processing and Analysis: Statistical data analysis was performed using GraphPad Prism (version 8.2.1). Dose-response data was analyzed using a Kruskal-Wallis test, followed by Dunn's multiple comparisons. […] Dose- and concentration-response curves were generated using the Hill Langmuir equation: […]

Where two headings read alike, the source gives them in different places.

Usually ED50 stands for the dose that gives a 50% effect, or the effect in half of the subjects. As a reminder, the IC50 is the midpoint of a concentration-inhibition curve.

On to `O=C1NC(=O)C(c2ccccc2)(c2ccccc2)N1` [Phenytoin, reference compound], for which, in data set [1] (Phenytoin 2 mg/kg), the “maximum % seizures of fitted curve, reflecting efficacy of Phenytoin alone” value amounted to 75%. For the same compound, the “fraction of animals without tonic seizures” value in data set [1] (Phenytoin 2 mg/kg IP 2 h alone) is reported as 6/24.
For `CC[C@@H](C(N)=O)N1CCCC1=O` [Levetiracetam, reference compound], the ED50 in data set [2] is on record as above 500 mg/kg. Further, the concentration at 1 h is 861 ± 120 µM in data set [3] (CF-1, mouse, brain, 300 mg/kg, Study 3B, Levetiracetam 300 mg/kg IP 1 h alone, read-out: Brain); 1100 ± 265 µM in data set [3] (CF-1, mouse, brain, Study 3C, analyte Levetiracetam, 300 mg/kg IP + Compound A 4 mg/kg PO, read-out: Brain); 1500 ± 320 µM in data set [3] (CF-1, mouse, plasma, 300 mg/kg, Study 3B, Levetiracetam 300 mg/kg IP 1 h alone, read-out: Plasma); 996 µM in data set [3] (mouse, brain, 300 mg/kg, Studies 3B+3C combined, Levetiracetam 300 mg/kg IP 1 h alone, read-out: Brain); 861 ± 120 µM in data set [3] (mouse, brain, 300 mg/kg, Study 3B, Levetiracetam 300 mg/kg IP 1 h alone, read-out: Brain); 1050 µM in data set [3] (mouse, brain, Studies 3B+3C combined, analyte Levetiracetam, 300 mg/kg IP + Compound A 4 mg/kg PO, read-out: Brain). In addition, the concentration at 1 h in data set [3] (mouse, brain, Study 3B, analyte Levetiracetam, 300 mg/kg IP + Compound A 4 mg/kg PO, read-out: Brain) was 1010 µM; in data set [3] (mouse, brain, Study 3C, analyte Levetiracetam, 300 mg/kg IP + Compound A 4 mg/kg PO, read-out: Brain), 1100 µM; in data set [3] (mouse, plasma, 300 mg/kg, Studies 3B+3C combined, Levetiracetam 300 mg/kg IP 1 h alone, read-out: Plasma) it was 1640 µM; in data set [3] (mouse, plasma, 300 mg/kg, Study 3B, Levetiracetam 300 mg/kg IP 1 h alone, read-out: Plasma) it was 1500 ± 320 µM; in data set [3] (mouse, plasma, Studies 3B+3C combined, analyte Levetiracetam, 300 mg/kg IP + Compound A 4 mg/kg PO, read-out: Plasma), 1730 µM; in data set [3] (mouse, plasma, Study 3B, analyte Levetiracetam, 300 mg/kg IP + Compound A 4 mg/kg PO, read-out: Plasma) it was 1350 µM. For the same compound, the concentration at 1 h in data set [3] (mouse, plasma, Study 3C, analyte Levetiracetam, 300 mg/kg IP + Compound A 4 mg/kg PO, read-out: Plasma) came out at 2160 µM. For the same compound, in data set [4] (Levetiracetam 300 mg/kg IP 1 h, 34 milliampere 6 Hz), the “average efficacy in previous experiments” value is given as 35%. Also, the “Fraction Seizing” value is listed as 14/16 in data set [4] (Studies 3B+3C combined), 8/8 in data set [4] (Study 3B) and 6/8 in data set [4] (Study 3C). In data set [4] (Study 3C, Levetiracetam 300 mg/kg IP alone), the “animals protected from seizing” value is recorded as 2/8. The figures for the “fraction of mice without tonic seizures” value in data set [1] (Levetiracetam 120 mg/kg IP 2 h) and in data set [1] (Levetiracetam 150 mg/kg IP 2 h) were 0/6 and 2/8, respectively.
Regarding `CCCC(CCC)C(=O)O` [Valproic Acid, reference compound], the IC50 in data set [1] (Mus musculus, ip, read-out: IC50 for Valproic Acid (plasma level, inhibition of tonic seizures)) was 1440 µM. Besides, the “number of mice without tonic seizures/total” value in data set [1] (Vehicle PO + Valproic Acid 56 mg/kg IP 0.5 h) is 1/7; in data set [1] (Vehicle PO + Valproic Acid 100 mg/kg IP 0.5 h), 5/15; in data set [1] (Vehicle+Valproic Acid at 56 mg/kg as printed, comparator of the 30 mg/kg combination), 0/8. Further, in data set [1] (combined with 1 mg/kg Compound A vs alone), the “decrease of IC50 for Valproic Acid” value came to 2.37 fold.

Source of the values: patent US20220288057A1, “CONJOINT THERAPY FOR TREATING SEIZURE DISORDERS” (XENON PHARMACEUTICALS INC., priority 2021, published 2022).
